Consider nine compounds from US7038077B2, “Prodrugs of excitatory amino acids” (Eli Lilly and Company, priority 2001, dated 2006).

The structures appear in SMILES notation.

Usually melting point stands for the temperature of the solid-liquid transition. For the compound `Cl.N[C@@]1(C(=O)OCc2cc(F)cc(F)c2)CC[C@H]2[C@H](C(=O)O)[C@H]21` [Example 35, (1S,2S,5R,6S)-2-Amino-bicyclo[3.1.0]hexane-2,6-dicarboxylic acid 2-(3′,5′-difluoro)benzyl ester hydrochloride], the melting point was in the range of 98 to 99 °C.
As for `Cl.N[C@@]1(C(=O)OCc2ccccc2F)CC[C@H]2[C@H](C(=O)O)[C@H]21` [Example 31, (1S,2S,5R,6S)-2-Amino-bicyclo[3.1.0]hexane-2,6-dicarboxylic acid 2-(2′-fluoro)benzyl ester hydrochloride], the figure is > 220 °C (dec.).
As for `Cc1ccc(C)c(COC(=O)[C@]2(N)CC[C@H]3[C@H](C(=O)O)[C@H]32)c1.Cl` [Example 41, (1S,2S,5R,6S)-2-Amino-bicyclo[3.1.0]hexane-2,6-dicarboxylic acid 2-(2′,5′-dimethyl)benzyl ester hydrochloride], the figure is 70 °C (dec.); as for `Cl.N[C@@]1(C(=O)OCc2ccccc2Br)CC[C@H]2[C@H](C(=O)O)[C@H]21` [Example 34, (1S,2S,5R,6S)-2-Amino-bicyclo[3.1.0]hexane-2,6-dicarboxylic acid 2-(2′-bromo)benzyl ester hydrochloride], 190 to 191 °C.
For `Cl.N[C@@]1(C(=O)OCc2cc(Cl)ccc2Cl)CC[C@H]2[C@H](C(=O)O)[C@H]21` [Example 33, (1S,2S,5R,6S)-2-Amino-bicyclo[3.1.0]hexane-2,6-dicarboxylic acid 2-(2′,5′-dichloro)benzyl ester hydrochloride] the value was 173 to 175 °C; for `Cl.N[C@@]1(C(=O)OCc2ccc(Cl)cc2Cl)CC[C@H]2[C@H](C(=O)O)[C@H]21` [Example 29, (1S,2S,5R,6S)-2-Amino-bicyclo[3.1.0]hexane-2,6-dicarboxylic acid 2-(2′,4′-dichloro)benzyl ester hydrochloride], 135 to 137 °C.
Consider `COc1ccccc1COC(=O)[C@]1(N)CC[C@H]2[C@H](C(=O)O)[C@H]21` [Example 48, (1S,2S,5R,6S)-2-Amino-bicyclo[3.1.0]hexane-2,6-dicarboxylic acid 2-(2′-methoxy)benzyl ester], for which the melting point was 195 °C (dec.).
As for `Cl.N[C@@]1(C(=O)OCc2ccccc2C(F)(F)F)CC[C@H]2[C@H](C(=O)O)[C@H]21`, the figure is > 175 °C (dec.); as for `N[C@@]1(C(=O)OCc2cccc(F)c2)CC[C@H]2[C@H](C(=O)O)[C@H]21` [Example 54, (1S,2S,5R,6S)-2-Amino-bicyclo[3.1.0]hexane-2,6-dicarboxylic acid 2-(3′-fluoro)benzyl ester], 225 °C (dec.).
